# Values of other authors as cited in patent US20170210704A1, “DEUTERO-PHENFORMIN DERIVATIVES” (Enlibrium Inc, priority 2016, published 2017).
# Experiments:
# [1] = patients treated for type 2 diabetes
# cytochrome P450 2D6 = conditions: 2D6 polymorphisms in humans; essentially no metabolism in poor metabolizers
risk of lactic acidosis [1],metabolism in ultrarapid metabolizers relative to poor metabolizers (cytochrome P450 2D6) [fold],Structure (SMILES)
"0.1 events per 1,000 patient years",–,"CN(C)C(=N)N=C(N)N [metformin, Metformin]"
"0.6 events per 1,000 patient years",200,"[H]/N=C(/N)N/C(=N/[H])NCCc1ccccc1 [phenformin, Phenformin]"
